Columns and labels:
[1] = system: female Balb/C mice; experiment: Contact hypersensitivity to TNCB after sensitization, peptide injected i.v. before sensitization; assay type: in vivo, mouse; details: 1.5 μg peptide i.v. (tail vein) 2 hours before TNCB sensitization; triggering 7 days later; measured 24 hours after triggering; positive controls 9.8×10^−2 mm, negative controls 1×10^−2 mm
Description: The study is carried out on 7-to 10-week-old female Balb/C mice.
A dose of 1.5 μg of the peptide studied (in solution in PBS buffer containing 0.1% of mouse serum) is injected into a vein of the tail of the mice 2 hours before the sensitization reaction.
The sensitization reaction consists in applying, with a brush, 100 μl of a solution containing 0.15% of TNCB in an acetone-olive oil (4:1) mixture to the shaved skin of the abdomen of the mice.
The triggering reaction is carried out 7 days after the sensitization reaction. This triggering reaction consists in applying to the two sides of an ear 10 microlitres of a solution containing 0.8% of TNCB in a vehicle consisting of the acetone-olive oil mixture already mentioned above.
To the other ear, only this mixture of acetone and olive oil is applied, for comparison.
The intensity of a possible contact hypersensitivity reaction is evaluated by estimating the size of the oedema of the ear treated with TNCB, in comparison with the ear treated with the vehicle alone. For that, the thickness of the ears is measured and compared with the aid of a micrometer screw. This measurement is carried out 24 hours after the triggering reaction.
The TNCB is also applied to the ear of control mice which have not been previously sensitized (negative controls).

[2] = system: female Balb/C mice; experiment: Contact hypersensitivity to TNCB, peptide applied topically in a water-in-oil cream; assay type: in vivo, mouse; details: peptide in water-in-oil cream applied to the area to be sensitized 2 hours before sensitization; 24 hours after triggering; positive controls 7×10^−2 mm
Description: The procedure is carried out as in a) above, but the peptide, incorporated in a cream of the water-in-oil type, is applied to the area to be sensitized 2 hours before the sensitization.
24 hours after the triggering reaction, the increase in the thickness of the ear is on average 3×10^−2 mm in the treated mice and 7×10^−2 mm in the positive controls.

[3] = system: female Balb/C mice; experiment: Contact hypersensitivity to TNCB after a second sensitization (tolerance test); assay type: in vivo, mouse; details: same mice re-sensitized with TNCB 14 days after the first experiment, no new peptide; triggering 7 days later; measured 24 hours later; positive controls 14×10^−2 mm
Description: 14 days after the end of the experiment described in a) above, the same mice are subjected to a new sensitization reaction on the shaved skin of the back, as described in a).
7 days later, the triggering test is carried out by application of TNCB to the ear, and 24 hours later, the degree of swelling of the ear is measured.
The aim of this second experiment is to distinguish between a possible a specific temporary immunosuppression and a specific immunological tolerance.

[4] = system: volunteer patients in whom a contact allergy to nickel was suspected; experiment: Topical effect on contact hypersensitivity reaction to nickel sulphate patch; assay type: in vivo, humans; details: cream containing 100 μM peptide under occlusive dressing on the back, 2 hours before 5% nickel sulphate patch; examined 24 hours later
Description: This study was carried out on 18 to 65 year-old volunteer patients in whom a contact allergy to nickel was suspected.
On day 0, there are applied with an occlusive dressing, to areas of the skin of the back, on the one hand a cream containing 100 μM of the peptide of formula II, and on the other hand the cream alone, without peptide, used as placebo.
Two hours later, patches impregnated with petroleum jelly containing nickel sulphate at a concentration of 5% are applied to the same areas of the skin, and also to an adjacent area that has not been pretreated.
24 hours later, the patients are examined. Those who developed a contact hypersensitivity reaction over the area treated with the placebo (and also over the adjacent area which received only the application of nickel salt), and who are therefore people who were already sensitized to nickel, are 14 in number.

Ac-D-Lys-D-Pro-D-Val-NH2 [II]
increase in the thickness of the ear [1]: about 2.5×10^−2 mm
increase in the thickness of the ear [2]: 3×10^−2 mm
degree of swelling of the ear (increase in the thickness of the ear) [3]: ~3.5×10^−2 mm
people (out of 14 already sensitized to nickel) who did not develop any contact hypersensitivity reaction over the area treated with the peptide [4]: 7

Reference: patent publication US6358929B1, “Use of a peptide preventing the intolerance reactions of the skin, in particular in cosmetic compositions” (L'Oreal, priority 1998, dated 2002)
